From US9382228B2 (priority 2013, dated 2016) come the findings set out here.

The target in test [1] is unphosphorylated c-KIT kinase (uKIT, Seq. ID no. 2) (Homo sapiens, UniProt P10721). Description: biochemical.
Description: uKit kinase (Seq. ID No. 2) Assay
In this assay, the oxidation of NADH (thus the decrease at A340 nm) was continuously monitored spectrophometrically. […] The inhibition reaction was started by mixing serial diluted test compound with the above reaction mixture. The absorption at 340 nm was monitored continuously for 4 hours at 30° C. on Synergy 2 plate reader (BioTech).
Test [2] concerns the target T1, unphosphorylated c-FMS kinase (uFMS, Seq. ID no. 1) (Homo sapiens, UniProt P07333).
T1 sequence (P07333 538-972): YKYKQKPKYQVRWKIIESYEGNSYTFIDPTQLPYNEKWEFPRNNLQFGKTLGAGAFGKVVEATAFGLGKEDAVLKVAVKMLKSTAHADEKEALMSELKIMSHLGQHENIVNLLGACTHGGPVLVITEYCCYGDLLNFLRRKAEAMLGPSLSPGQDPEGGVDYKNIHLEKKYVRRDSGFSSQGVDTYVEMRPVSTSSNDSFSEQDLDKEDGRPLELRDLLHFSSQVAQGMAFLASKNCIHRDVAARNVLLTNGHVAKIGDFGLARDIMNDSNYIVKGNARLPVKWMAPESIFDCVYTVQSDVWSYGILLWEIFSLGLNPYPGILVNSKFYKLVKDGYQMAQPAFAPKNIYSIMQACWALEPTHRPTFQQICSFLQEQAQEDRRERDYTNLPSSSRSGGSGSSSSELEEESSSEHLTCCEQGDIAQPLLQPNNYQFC
Description: biochemical.
Description: In this assay, the oxidation of NADH (thus the decrease at A340 nm) was continuously monitored spectrophometrically. The reaction mixture (100 μL) contained FMS (purchased from Millipore) (10 nM), polyE4Y (1 mg/mL), MgCl2 (10 mM), pyruvate kinase (4 units), lactate dehydrogenase (0.7 units), phosphoenol pyruvate (1 mM), NADH (0.28 mM) and ATP (500 μM) in 90 mM Tris buffer containing 0.2% octyl-glucoside and 1% DMSO, pH 7.5. The inhibition reaction was started by mixing serial diluted test compound with the above reaction mixture. The absorption at 340 nm was monitored continuously for 4 hours at 30° C. on Synergy 2 plate reader. The reaction rate was calculated using the 3 to 4 h time frame. Percent inhibition was obtained by comparison of reaction rate with that of a control (i.e. in the absence of test compound). IC50 values were calculated from a series of percent inhibition values determined at a range of inhibitor concentrations using software routines as implemented in the GraphPad Prism software package.

Test [3] concerns the target unphosphorylated PDGFRβ kinase (uPDGFRβ, Seq. ID No. 3) (Homo sapiens, UniProt P09619). The experiment in a line: biochemical.
Description: Unphosphorylated PDGFRβ (uPDGFRβ) Kinase (Seq. ID No. 3) Assay
In this assay, the oxidation of NADH (thus the decrease at A340 nm) was continuously monitored spectrophometrically. […] The inhibition reaction was started by mixing serial diluted test compound with the above reaction mixture. The absorption at 340 nm was monitored continuously for 4 h at 30° C. on a Polarstar Optima or Synergy 2 plate reader. The reaction rate was calculated using the 1.5 to 2.5 h time frame. Percent inhibition was obtained by comparison of reaction rate with that of a control (i.e. with no test compound). IC50 values were calculated from a series of percent inhibition values determined at a range of inhibitor concentrations using software routines as implemented in the GraphPad Prism software package.
The subject of another test is M-NFS-60 cells. Description: cells. Conditions: 67 h, read-out: M-NFS-60 cell proliferation.
In test [4] the test system is phospho-FMS in THP-1 cells. Description: cells. The note with it: Homo sapiens, THP-1, read-out: pFMS inhibition in THP-1 cells.
Description: In a separate 96 well black clear bottom plate, one hundred and fifty thousand THP-1 cells were added per well in 100 μL in assay medium. Fifty microliters of diluted compound was then added to the cells. […] Lysates were prepared and used to perform the phospho-FMS ELISA as described by the manufacturer (catalog #DYC3268, R & D Systems, Minneapolis, Minn.). GraphPad Prism was used to calculate IC50 values obtained from data generated from the ELISA assay.
For a further test, the system named is osteoclast precursors. Description: cells. The format is cell-based. The note with it: read-out: Osteoclast assay.
[5] abbreviates: uKIT, enzymatic assay, ATP 2000 μM.
The mark [6] stands for this setting: uFMS, enzymatic assay, ATP 500 μM.
[7] abbreviates: uPDGFRb, enzymatic assay, ATP 500 μM.

Molecules are shown by their SMILES. Where only a bound is given, the exact number is not on record here.

unphosphorylated PDGFRβ kinase (uPDGFRβ, Seq. ID No. 3), sequence (P09619 557-1106): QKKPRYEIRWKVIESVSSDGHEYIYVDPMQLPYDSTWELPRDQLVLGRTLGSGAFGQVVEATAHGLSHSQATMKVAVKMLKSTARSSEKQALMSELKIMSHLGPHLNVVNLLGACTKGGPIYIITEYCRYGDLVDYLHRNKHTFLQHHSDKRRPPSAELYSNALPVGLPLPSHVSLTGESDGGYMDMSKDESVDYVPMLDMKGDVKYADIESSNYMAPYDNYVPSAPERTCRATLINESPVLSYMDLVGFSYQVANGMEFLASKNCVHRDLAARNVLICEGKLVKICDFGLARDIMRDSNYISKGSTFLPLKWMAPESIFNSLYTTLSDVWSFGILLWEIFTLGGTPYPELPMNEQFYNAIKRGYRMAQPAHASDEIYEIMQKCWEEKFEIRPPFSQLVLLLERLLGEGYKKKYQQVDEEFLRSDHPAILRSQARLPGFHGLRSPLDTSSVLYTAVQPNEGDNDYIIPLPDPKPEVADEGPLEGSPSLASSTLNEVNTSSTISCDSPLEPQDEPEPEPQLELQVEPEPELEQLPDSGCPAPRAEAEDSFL
unphosphorylated c-KIT kinase (uKIT, Seq. ID no. 2), sequence (P10721 with tags, fused parts or gaps): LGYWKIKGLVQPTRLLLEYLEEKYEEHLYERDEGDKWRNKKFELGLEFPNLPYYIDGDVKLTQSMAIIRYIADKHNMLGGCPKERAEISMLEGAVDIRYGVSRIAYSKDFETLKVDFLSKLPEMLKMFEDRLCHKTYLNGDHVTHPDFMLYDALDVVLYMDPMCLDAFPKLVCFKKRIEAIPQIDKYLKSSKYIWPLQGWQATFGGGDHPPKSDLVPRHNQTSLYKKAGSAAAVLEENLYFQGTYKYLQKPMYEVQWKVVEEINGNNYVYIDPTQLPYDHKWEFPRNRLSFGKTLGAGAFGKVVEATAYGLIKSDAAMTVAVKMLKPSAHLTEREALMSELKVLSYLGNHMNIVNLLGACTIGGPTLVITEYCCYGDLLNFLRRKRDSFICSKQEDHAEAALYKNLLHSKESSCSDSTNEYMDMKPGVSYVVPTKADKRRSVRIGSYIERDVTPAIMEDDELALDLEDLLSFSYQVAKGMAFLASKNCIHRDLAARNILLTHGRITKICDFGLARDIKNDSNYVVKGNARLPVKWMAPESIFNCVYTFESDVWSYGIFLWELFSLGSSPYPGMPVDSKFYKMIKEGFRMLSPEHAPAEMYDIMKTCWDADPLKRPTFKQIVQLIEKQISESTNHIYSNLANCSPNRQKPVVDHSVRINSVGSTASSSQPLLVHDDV
Description for M-NFS-60 cells: M-NFS-6 Cell Proliferation Assay
A serial dilution of test compound was dispensed into a 384-well black clear bottom plate (Corning, Corning, N.Y.). Two thousand five hundred cells were added per well in 50 μL complete growth medium. […] IC50 values were calculated from a series of percent inhibition values determined at a range of inhibitor concentrations using software routines as implemented in the GraphPad Prism software package.

For `CCC(C)(C)C(=O)NC(=O)Nc1ccc(Oc2ccnc(-c3cnn(C)c3)c2)c(C)n1` [Example 69, 2,2-dimethyl-N-((6-methyl-5-((2-(1-methyl-1H-pyrazol-4-yl)pyridin-4-yl)oxy)pyridin-2-yl)carbamoyl)butanamide], the IC50 in test [1] (setting [5]) was 100 to 1000 nM; in test [2] (setting [6]), less than 10 nM; in test [3] (setting [7]), 100 to 1000 nM; with M-NFS-60 cells, less than 0.01 µM; in test [4], 0.01 to 0.1 µM; in the test on osteoclast precursors, 0.01 to 0.1 µM.

As for `Cc1ncc(-c2cc(Oc3ccc(NC(=O)NC(=O)C(C)(C)C)nc3)ccn2)s1` [Example 70, N-((5-((2-(2-methylthiazol-5-yl)pyridin-4-yl)oxy)pyridin-2-yl)carbamoyl)pivalamide], the IC50 in test [1] (IC50 (nM) uKIT, Table 3) is 2600 nM; in test [1] (setting [5]), more than 1000 nM; in test [2] (IC50 (nM) uFMS, Table 3), 4 nM; in test [2] (setting [6]), less than 10 nM; in test [3] (IC50 (nM) uPDGFRβ, Table 3), 922 nM; in test [3] (setting [7]), 100 to 1000 nM. Besides, the IC50 with M-NFS-60 cells was 0.01 to 0.1 µM; in test [4] it was 0.01 to 0.1 µM; in the test with osteoclast precursors it was less than 0.01 µM.

Take `Cc1ccc(-c2cc(Oc3ccc(NC(=O)NC(=O)C(C)C)nc3C)ccn2)cn1` [Example 71, N-((6-methyl-5-((6′-methyl-[2,3′-bipyridin]-4-yl)oxy)pyridin-2-yl)carbamoyl)isobutyramide]: the IC50 in test [1] (setting [5]) is more than 1000 nM; in test [2] (setting [6]), less than 10 nM; in test [3] (setting [7]), more than 1000 nM; with M-NFS-60 cells, 0.01 to 0.1 µM; in test [4], 0.01 to 0.1 µM; in the test on osteoclast precursors, less than 0.01 µM.

As to `COC(C)(C)C(=O)NC(=O)Nc1ccc(Oc2ccnc(-c3ccc(C)nc3)c2)cn1` [Example 72, 2-methoxy-2-methyl-N-((5-((6′-methyl-[2,3′-bipyridin]-4-yl)oxy)pyridin-2-yl)carbamoyl)propanamide], the IC50 in test [1] (setting [5]) is more than 1000 nM; in test [2] (setting [6]) it was less than 10 nM; in test [3] (setting [7]), 100 to 1000 nM; with M-NFS-60 cells it was 0.01 to 0.1 µM; in test [4], less than 0.01 µM; in the test on osteoclast precursors it was less than 0.01 µM.

With `Cc1ccc(-c2cc(Oc3ccc(NC(=O)NC(=O)C(C)(C)C)nc3)ccn2)cn1` [Example 73, N-((5-((6′-methyl-[2,3′-bipyridin]-4-yl)oxy)pyridin-2-yl)carbamoyl)pivalamide], the IC50 in test [1] (setting [5]) is more than 1000 nM; in test [2] (setting [6]) it was less than 10 nM; in test [3] (setting [7]) it was 100 to 1000 nM; with M-NFS-60 cells, 0.01 to 0.1 µM; in test [4], less than 0.01 µM; in the test on osteoclast precursors it was less than 0.01 µM.

For the compound `CC(C)C(=O)NC(=O)Nc1ccc(Oc2ccnc(-c3ccc(C4CCN(C)CC4)cc3)c2)cn1` [Example 75, N-((5-((2-(4-(1-methylpiperidin-4-yl)phenyl)pyridin-4-yl)oxy)pyridin-2-yl)carbamoyl)isobutyramide], the IC50 is 100 to 1000 nM in test [1] (setting [5]); less than 10 nM in test [2] (setting [6]); 100 to 1000 nM in test [3] (setting [7]); less than 0.01 µM in the test on M-NFS-60 cells; less than 0.01 µM in test [4]; less than 0.01 µM in the test with osteoclast precursors.

Consider `CCc1nc(NC(=O)NC(=O)C2CCOCC2)ccc1Oc1ccnc(-c2cnn(C)c2)c1` [Example 83, N-((6-ethyl-5-((2-(1-methyl-1H-pyrazol-4-yl)pyridin-4-yl)oxy)pyridin-2-yl)carbamoyl)tetrahydro-2H-pyran-4-carboxamide], for which the IC50 in test [1] (setting [5]) is more than 1000 nM; in test [2] (setting [6]), less than 10 nM; in test [3] (setting [7]), more than 1000 nM; with M-NFS-60 cells, 0.01 to 0.1 µM; in test [4], 0.1 to 1 µM; with osteoclast precursors, 0.01 to 0.1 µM.

As to `Cc1cc(NC(=O)NC(=O)C(C)(C)C)ncc1Oc1ccnc(-c2cnn(C)c2)c1` [Example 84, N-((4-methyl-5-((2-(1-methyl-1H-pyrazol-4-yl)pyridin-4-yl)oxy)pyridin-2-yl)carbamoyl)pivalamide], the IC50 in test [1] (setting [5]) was 100 to 1000 nM; in test [2] (setting [6]), less than 10 nM; in test [3] (setting [7]), 100 to 1000 nM; in the test on M-NFS-60 cells, less than 0.01 µM; in test [4] it was less than 0.01 µM; with osteoclast precursors, less than 0.01 µM.

`Cc1ncc(-c2cc(Oc3ccc(NC(=O)NC(=O)C(C)(C)C)nc3C)ccn2)s1` [Example 86, N-((6-methyl-5-((2-(2-methylthiazol-5-yl)pyridin-4-yl)oxy)pyridin-2-yl)carbamoyl)pivalamide]: the IC50 in test [1] (setting [5]) is more than 1000 nM; in test [2] (setting [6]), less than 10 nM; in test [3] (setting [7]) it was more than 1000 nM; in the test on M-NFS-60 cells it was less than 0.01 µM; in test [4] it was less than 0.01 µM; with osteoclast precursors, 0.01 to 0.1 µM.

With `COC(C)(C)C(=O)NC(=O)Nc1cc(C)c(Oc2ccnc(-c3cnn(C)c3)c2)cn1` [Example 91, 2-methoxy-2-methyl-N-((4-methyl-5-((2-(1-methyl-1H-pyrazol-4-yl)pyridin-4-yl)oxy)pyridin-2-yl)carbamoyl)propanamide], the IC50 in test [1] (setting [5]) is 10 to 100 nM; in test [2] (setting [6]) it was less than 10 nM; in test [3] (setting [7]), 100 to 1000 nM; in the test with M-NFS-60 cells, less than 0.01 µM; in test [4] it was less than 0.01 µM; with osteoclast precursors, less than 0.01 µM.

Turning to `Cc1nc(NC(=O)NC(=O)C2(C)CCC2)ccc1Oc1ccnc(-c2cnn(C)c2)c1` [Example 92, 1-methyl-N-((6-methyl-5-((2-(1-methyl-1H-pyrazol-4-yl)pyridin-4-yl)oxy)pyridin-2-yl)carbamoyl)cyclobutanecarboxamide], the IC50 in test [1] (setting [5]) is 100 to 1000 nM; in test [2] (setting [6]), less than 10 nM; in test [3] (setting [7]) it was 100 to 1000 nM; in the test with M-NFS-60 cells, less than 0.01 µM; in test [4], less than 0.01 µM; in the test with osteoclast precursors, less than 0.01 µM.

Take `CC(C)(C)C(=O)NC(=O)Nc1ccc(Oc2ccnc(-c3cnco3)c2)cn1` [Example 93, N-((5-((2-(oxazol-5-yl)pyridin-4-yl)oxy)pyridin-2-yl)carbamoyl)pivalamide]: the IC50 was more than 1000 nM in test [1] (setting [5]); 10 to 100 nM in test [2] (setting [6]); more than 1000 nM in test [3] (setting [7]); 0.01 to 0.1 µM in the test with M-NFS-60 cells; less than 0.01 µM in test [4]; less than 0.01 µM in the test with osteoclast precursors.

For `Cc1cn(-c2cc(Oc3ccc(NC(=O)NC(=O)C(C)(C)C)nc3)ccn2)cn1` [Example 99, N-((5-((2-(4-methyl-1H-imidazol-1-yl)pyridin-4-yl)oxy)pyridin-2-yl)carbamoyl)pivalamide], the IC50 was 4000 nM in test [1] (IC50 (nM) uKIT, Table 3); more than 1000 nM in test [1] (setting [5]); 4 nM in test [2] (IC50 (nM) uFMS, Table 3); less than 10 nM in test [2] (setting [6]); 366 nM in test [3] (IC50 (nM) uPDGFRβ, Table 3); 100 to 1000 nM in test [3] (setting [7]). Besides, the results for the IC50 (in the test on M-NFS-60 cells; in test [4]; in the test on osteoclast precursors) were 0.01 to 0.1 µM, less than 0.01 µM and 0.01 to 0.1 µM, respectively.

`Cc1ccc(-c2cc(Oc3ccc(NC(=O)NC(=O)C4CCOCC4)nc3)ccn2)cn1` [Example 103, N-((5-((6′-methyl-[2,3′-bipyridin]-4-yl)oxy)pyridin-2-yl)carbamoyl)tetrahydro-2H-pyran-4-carboxamide]: the IC50 in test [1] (setting [5]) is more than 1000 nM; in test [2] (setting [6]) it was 10 to 100 nM; in test [3] (setting [7]), 100 to 1000 nM; in the test with M-NFS-60 cells, 0.01 to 0.1 µM; in test [4], less than 0.01 µM; in the test on osteoclast precursors it was 0.01 to 0.1 µM.

In the case of `Cn1cnc(-c2cc(Oc3ccc(NC(=O)NC(=O)C(C)(C)C)nc3)ccn2)c1` [Example 104, N-((5-((2-(1-methyl-1H-imidazol-4-yl)pyridin-4-yl)oxy)pyridin-2-yl)carbamoyl)pivalamide], the IC50 in test [1] (setting [5]) is more than 1000 nM; in test [2] (setting [6]), less than 10 nM; in test [3] (setting [7]), more than 1000 nM; in the test on M-NFS-60 cells, less than 0.01 µM; in test [4], less than 0.01 µM; in the test with osteoclast precursors, less than 0.01 µM.

`Cc1nc(NC(=O)NC(=O)C(C)(C)C)ccc1Oc1ccnc(-c2ccc(C#N)nc2)c1` [Example 107, N-((5-((6′-cyano-[2,3′-bipyridin]-4-yl)oxy)-6-methylpyridin-2-yl)carbamoyl)pivalamide]: the IC50 in test [1] (setting [5]) is more than 1000 nM; in test [2] (setting [6]), 10 to 100 nM; in test [3] (setting [7]), more than 1000 nM; with M-NFS-60 cells, 0.1 to 1 µM; in test [4], 0.01 to 0.1 µM; in the test on osteoclast precursors it was 0.01 to 0.1 µM.

On to `CCOC(C)(C)C(=O)NC(=O)Nc1ccc(Oc2ccnc(-c3cnn(C)c3)c2)cn1` [Example 123, 2-ethoxy-2-methyl-N-((5-((2-(1-methyl-1H-pyrazol-4-yl)pyridin-4-yl)oxy)pyridin-2-yl)carbamoyl)propanamide], for which the IC50 in test [1] (setting [5]) is 100 to 1000 nM; in test [2] (setting [6]), less than 10 nM; in test [3] (setting [7]), 100 to 1000 nM; with M-NFS-60 cells it was 0.01 to 0.1 µM; in test [4], 0.01 to 0.1 µM; with osteoclast precursors, less than 0.01 µM.

Consider `CCOC(C)(C)C(=O)NC(=O)Nc1ccc(Oc2ccnc(-c3cnc(C)s3)c2)cn1` [Example 124, 2-ethoxy-2-methyl-N-((5-((2-(2-methylthiazol-5-yl)pyridin-4-yl)oxy)pyridin-2-yl)carbamoyl)propanamide], for which the IC50 in test [1] (setting [5]) was more than 1000 nM; in test [2] (setting [6]), less than 10 nM; in test [3] (setting [7]), more than 1000 nM; with M-NFS-60 cells, 0.01 to 0.1 µM; in test [4] it was 0.01 to 0.1 µM; in the test with osteoclast precursors, 0.01 to 0.1 µM.
